By DC50 is commonly meant the midpoint of the concentration-degradation curve. Read a high DC50 as degradation only at high concentration. Broadly, the Dmax is the greatest extent of degradation seen. The Kd is the free concentration of one partner at which half of the binding sites on the other are occupied at equilibrium, for simple one-to-one binding.

The source of these data is patent US20230374007A1, “COMPOUNDS AND THEIR USE IN TREATING CANCER” (AstraZeneca AB, priority 2020, published 2023).

Experiment [1] has as its target T1, BRD4 tagged to a HiBiT tag in HEK 293 cells (Homo sapiens, UniProt O60885).
T1 construct: at the N-terminus of endogenous BRD4; endogenous in cells
Briefly: HiBiT degradation assay. The conditions noted are these: for DC50: BRD4 degradation, HiBiT-BRD4 HEK 293 cells, 18 h; for Dmax: HEK293. Type of experiment: cell-based. Here is the method:
Determination of PROTAC potency was determined in HEK 293 cells expressing BRD4 tagged to a HiBiT tag. To generate those cells, HiBiT tag (aminoacid sequence: […]) was inserted, via CRISPR CAS9 knock-in, at the N-terminus of endogenous BRD4.
To measure success of knock-in the cells were then tested for their level of luminescence. Finally a stable pool was generated from them. In a typical experiment, 14×10^3 cells are seed in the wells of a 384 well plate (white flat bottom, tissue culture ready, corning 781080) in 40 μL of culture medium (DMEM, 10% FBS and 2 mM Gln). Immediately after seeding, PROTAC compounds, diluted in DMSO solution, are added to the wells via ECHO 555 acoustic dispenser at the appropriate concentration. DMSO is used as a not active control and as normalization. In each plate a series of compounds of known DC50 are included as quality control. The 384 well plate is placed in an incubator at 37° C. and 5% CO2 for 18 h. At the end of the incubation period plates are removed from the incubator and the medium is replaced with 10 μL of PBS and 10 μL of complete NanoGlo HiBiT solution (Promega N3040, consisting of 9.7 μL of Lysis buffer, with 0.1 μL of LgBiT protein and 0.2 μL of nanoluciferase substrate). After 15 minutes of incubation at r.t., the luciferase activity of the plate is recorded in a luminometer. dBET6 (MCE® Cat. No.: HY-112588) was used for normalization when calculating Dmax.

The target in experiment [2] is T2, human BRD4 (amino acid residues 42 to 169) (Homo sapiens, UniProt O60885).
T2 construct: encoding amino acid residues 42 to 169 (Uniprot 060885) of human BRD4; hexahistidine (N, cleaved yes); TEV cleavage site (N, cleaved yes); made in house; host or cells: E. coli BL21 Gold (DE3)
As to the kind of experiment: BRD4 surface plasmon resonance (SPR) assay. Type of experiment: binding. As to conditions: biotinylated BRD4, 25° C., read-out: BRD4 Affinity Kd.

Regarding `Cc1sc2c(c1C)C(c1ccc(Cl)cc1)=N[C@@H](CC(=O)NCCOCCOCCOCCOCCOCCOCCNC(=O)Cc1c[nH]c3cc(N4CCC(=O)NC4=O)ccc13)c1nnc(C)n1-2` [Example 129, (S)-2-(4-(4-Chlorophenyl)-2,3,9-trimethyl-6H-thieno[3,2-f][1,2,4]triazolo[4,3-a][1,4]-diazepin-6-yl)-N-(1-(6-(2,4-dioxotetrahydropyrimidin-1 (2H)-yl)-1H-indol-3-yl)-2-oxo-6,9,12,15,18,21-hexaoxa-3-azatricosan-23-yl)acetamide], in experiment [1], the DC50 was 970 nM and the Dmax amounted to 111%. Also, the Kd in experiment [2] was 30 nM.
On the same counts, the results for `Cc1sc2c(c1C)C(c1ccc(Cl)cc1)=N[C@@H](CC(=O)NCCOCCOCCNC(=O)Cc1c[nH]c3cc(N4CCC(=O)NC4=O)ccc13)c1nnc(C)n1-2` [Example 128, (S)-2-(4-(4-Chlorophenyl)-2,3,9-trimethyl-6H-thieno[3,2-f][1,2,4]triazolo[4,3-a][1,4]-diazepin-6-yl)-N-(2-(2-(2-(2-(6-(2,4-dioxotetrahydropyrimidin-1 (2H)-yl)-1H-indol-3-yl)acetamido)-ethoxy)ethoxy)ethyl)acetamide] are 1140 nM, 73.1% and 19 nM.
Turning to `Cc1sc2c(c1C)C(c1ccc(Cl)cc1)=N[C@@H](CC(=O)NCCNC(=O)Cc1c[nH]c3cc(N4CCC(=O)NC4=O)ccc13)c1nnc(C)n1-2` [Example 127, (S)-2-(4-(4-Chlorophenyl)-2,3,9-trimethyl-6H-thieno[3,2-f][1,2,4]triazolo[4,3-a][1,4]-diazepin-6-yl)-N-(2-(2-(6-(2,4-dioxotetrahydropyrimidin-1 (2H)-yl)-1H-indol-3-yl)acetamido)ethyl)-acetamide], in experiment [1], it took 198 nM to reach half-maximal degradation (DC50) and the Dmax came out at 97.2%. Besides, the Kd in experiment [2] was determined as 13 nM.
